From PubChem BioAssay AID256 (DTP/NCI, 2004) come the findings set out here.

This assay relates to CD2F1 mice, L1210 leukemia ip, survival T/C. Description: NCI In Vivo Anticancer Drug Screen. Data for tumor model L1210 Leukemia (intraperitoneal) in CD2F1 (CDF1) mice. As to conditions: higher = longer survival. Put shortly: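 Activity against a transplanted murine tumor was judged by comparing the compound group with a vehicle group. The outcome in the treated animals was divided by that in the controls.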

The mark [1] stands for this setting: endpoint: mean survival time, dose: 50.0 mg/kg/injection, schedule: Q01DX009 (ip), vehicle: saline with Tween-80.
Where [2] appears, read: endpoint: mean survival time, dose: 100.0 mg/kg/injection, schedule: Q01DX009 (ip), vehicle: saline with Tween-80.
Setting [3] is: endpoint: mean survival time, dose: 100.0 mg/kg/injection, schedule: Q04DX003 (ip), vehicle: saline with Tween-80.
Setting [4] is: endpoint: mean survival time, dose: 200.0 mg/kg/injection, schedule: Q01DX009 (ip), vehicle: saline with Tween-80.
[5] abbreviates: endpoint: mean survival time, dose: 200.0 mg/kg/injection, schedule: Q04DX003 (ip), vehicle: saline with Tween-80.
[6] abbreviates: endpoint: median survival time, dose: 25.0 mg/kg/injection, schedule: Q01DX009 (ip), vehicle: saline with Tween-80.
Where [7] appears, read: endpoint: median survival time, dose: 50.0 mg/kg/injection, schedule: Q01DX009 (ip), vehicle: saline with Tween-80.
Setting [8] is: endpoint: mean survival time, dose: 100.0 mg/kg/injection, schedule: Q01DX001 (ip), vehicle: saline with Tween-80.
Setting [9] is: endpoint: mean survival time, dose: 200.0 mg/kg/injection, schedule: Q01DX001 (ip), vehicle: saline with Tween-80.
[10] abbreviates: endpoint: mean survival time, dose: 400.0 mg/kg/injection, schedule: Q01DX001 (ip), vehicle: saline with Tween-80.
[11] abbreviates: endpoint: mean survival time, dose: 400.0 mg/kg/injection, schedule: Q01DX009 (ip), vehicle: saline with Tween-80.
[12] abbreviates: endpoint: mean survival time, dose: 400.0 mg/kg/injection, schedule: Q04DX003 (ip), vehicle: saline with Tween-80.
The mark [13] stands for this setting: endpoint: mean survival time, dose: 25.0 mg/kg/injection, schedule: Q01DX009 (ip), vehicle: Klucel (hydroxypropylcellulose) (HPC).
Setting [14] is: endpoint: mean survival time, dose: 50.0 mg/kg/injection, schedule: Q01DX009 (ip), vehicle: Klucel (hydroxypropylcellulose) (HPC).
Setting [15] is: endpoint: mean survival time, dose: 100.0 mg/kg/injection, schedule: Q01DX009 (ip), vehicle: Klucel (hydroxypropylcellulose) (HPC).
The mark [16] stands for this setting: endpoint: mean survival time, dose: 200.0 mg/kg/injection, schedule: Q01DX009 (ip), vehicle: Klucel (hydroxypropylcellulose) (HPC).

Several values for one entry are separate records, joined by “and”; a condition that tells them apart may be missing. Identical values can stand only once. Inconclusive results and toxic doses are left out.

As for `O=C(O)c1cccc2c1-c1c(cccc1[N+](=O)[O-])C2`, the T/C under setting [1] is 96 % of control; the T/C under setting [2] was 97 % of control; the T/C under setting [3] was 101 % of control; the T/C under setting [4] was 91 % of control; the T/C under setting [5] was 100 % of control.
Turning to `O=CC(CO)CC(C=O)n1cnc2c(=O)[nH]cnc21` (centres undefined), the T/C reads like this: (endpoint: mean survival time, dose: 60.0 mg/kg/injection, schedule: Q01DX009 (ip), vehicle: saline) 123 % of control; (endpoint: mean survival time, dose: 89.0 mg/kg/injection, schedule: Q01DX009 (ip), vehicle: saline) 116 % of control; (endpoint: mean survival time, dose: 300.0 mg/kg/injection, schedule: Q01DX009 (ip), vehicle: saline) 159 % of control; (endpoint: mean survival time, dose: 300.0 mg/kg/injection, schedule: Q04DX003 (ip), vehicle: saline) 150 % of control; (endpoint: median survival time, dose: 37.5 mg/kg/injection, schedule: Q01DX009 (ip), vehicle: saline) 113 % of control and 124 % of control.
On to `CCCCCCNc1nc(NCCCCCC)c2[nH]c(NCCCCCC)nc2n1`, for which the T/C is 107 % of control under setting [6]; 107 % of control under setting [7]; 106 % of control (endpoint: median survival time, dose: 100.0 mg/kg/injection, schedule: Q01DX009 (ip), vehicle: saline with Tween-80); 105 % of control (endpoint: median survival time, dose: 200.0 mg/kg/injection, schedule: Q01DX009 (ip), vehicle: saline with Tween-80).
For the molecule `CC(CCC(=O)O)C1CCC2C3CCC4CC(O)CCC4(C)C3CC(O)C12C` (centres undefined), the T/C under setting [8] was 104 % of control and 94 % of control; the T/C under setting [9] was 101 % of control; the T/C under setting [10] was 92 % of control.
Regarding `[N-]=[N+]=Nc1ccccc1C(=O)NCc1cnc(N)nc1N`, the T/C by setting is: under setting [3], 95 % of control; under setting [5], 95 % of control.
Take `COC(=O)CCC1CCCC(CCC(=O)OC)C1=O` (centres undefined): the T/C is 87 % of control (endpoint: mean survival time, dose: 100.0 mg/kg/injection, schedule: Q04DX003 (ip), vehicle: Klucel (hydroxypropylcellulose) (HPC)); 94 % of control (endpoint: mean survival time, dose: 200.0 mg/kg/injection, schedule: Q04DX003 (ip), vehicle: Klucel (hydroxypropylcellulose) (HPC)); 92 % of control (endpoint: mean survival time, dose: 400.0 mg/kg/injection, schedule: Q04DX003 (ip), vehicle: Klucel (hydroxypropylcellulose) (HPC)).
With `O=C(O)C1C(c2ccccc2)=C(c2ccccc2)c2ccccc21` (centres undefined), the T/C runs as follows: (endpoint: mean survival time, dose: 25.0 mg/kg/injection, schedule: Q01DX009 (ip), vehicle: saline with Tween-80) 94 % of control; under setting [1], 93 % of control; under setting [2], 98 % of control.
Take `CC1(C)N=C(N)N=C(N)N1c1cccc(OCCOc2ccc(NC(=O)CBr)cc2)c1`: the T/C runs as follows: (endpoint: mean survival time, dose: 6.25 mg/kg/injection, schedule: Q01DX009 (ip), vehicle: other) 102 % of control; (endpoint: mean survival time, dose: 12.5 mg/kg/injection, schedule: Q01DX009 (ip), vehicle: other) 113 % of control; (endpoint: mean survival time, dose: 25.0 mg/kg/injection, schedule: Q01DX009 (ip), vehicle: other) 110 % of control; (endpoint: mean survival time, dose: 50.0 mg/kg/injection, schedule: Q01DX009 (ip), vehicle: other) 113 % of control.
Consider `[Na+]`, for which the T/C (endpoint: median survival time, dose: 25.0 mg/kg/injection, schedule: Q01DX009 (ip), vehicle: water) was 105 % of control; the T/C (endpoint: median survival time, dose: 50.0 mg/kg/injection, schedule: Q01DX009 (ip), vehicle: water) was 102 % of control; the T/C (endpoint: median survival time, dose: 100.0 mg/kg/injection, schedule: Q01DX009 (ip), vehicle: water) was 93 % of control; the T/C (endpoint: median survival time, dose: 200.0 mg/kg/injection, schedule: Q01DX009 (ip), vehicle: water) was 100 % of control; the T/C (endpoint: median survival time, dose: 400.0 mg/kg/injection, schedule: Q01DX009 (ip), vehicle: water) was 105 % of control.
As to `Cc1ccccc1NC(=O)c1cc2ccccc2cc1O`, the T/C under setting [2] was 91 % of control; the T/C under setting [3] is 102 % of control; the T/C under setting [4] is 94 % of control; the T/C under setting [5] is 89 % of control; the T/C under setting [11] is 94 % of control; the T/C under setting [12] was 91 % of control.
On to `O/N=C(/Cc1ccccc1)c1ccccc1`, for which the T/C runs as follows: under setting [8], 100 % of control; under setting [9], 92 % of control; under setting [10], 90 % of control.
Consider `[NH-]C(CCC(N)=O)C(=O)O.[NH-]C(CCC(N)=O)C(=O)O.[Zn+2]` (centres undefined), for which the T/C is 102 % of control (endpoint: median survival time, dose: 6.25 mg/kg/injection, schedule: Q01DX009 (ip), vehicle: saline with Tween-80); 101 % of control (endpoint: median survival time, dose: 12.5 mg/kg/injection, schedule: Q01DX009 (ip), vehicle: saline with Tween-80); 96 % of control under setting [6]; 101 % of control under setting [7].
Consider `O=[N+]([O-])c1ccc(N/N=C2/C3CCC(C3)C2C(O)(C(F)(F)F)C(F)(F)F)c([N+](=O)[O-])c1` (centres undefined), for which the T/C (endpoint: mean survival time, dose: 50.0 mg/kg/injection, schedule: Q04DX003 (ip), vehicle: saline with Tween-80) was 94 % of control; the T/C under setting [3] is 95 % of control; the T/C under setting [5] was 94 % of control; the T/C under setting [12] was 103 % of control.
`N#CC1=C(NC2OCC(O)C(O)C2O)CCC1` (centres undefined): the T/C (endpoint: mean survival time, dose: 12.5 mg/kg/injection, schedule: Q01DX005 (ip), vehicle: other) is 108 % of control; the T/C (endpoint: mean survival time, dose: 25.0 mg/kg/injection, schedule: Q01DX005 (ip), vehicle: other) is 95 % of control; the T/C (endpoint: mean survival time, dose: 50.0 mg/kg/injection, schedule: Q01DX005 (ip), vehicle: other) is 98 % of control; the T/C (endpoint: mean survival time, dose: 100.0 mg/kg/injection, schedule: Q01DX005 (ip), vehicle: other) was 98 % of control; the T/C (endpoint: mean survival time, dose: 200.0 mg/kg/injection, schedule: Q01DX005 (ip), vehicle: other) is 89 % of control.
`Cc1cc(NC(=O)CCc2ccc(N)cc2)ccc1S(=O)(=O)F`: the T/C under setting [13] is 110 % of control; the T/C under setting [14] was 98 % of control; the T/C under setting [15] was 108 % of control; the T/C under setting [16] was 94 % of control and 106 % of control.
As to `CCOC(=O)C1(C(=O)OCC)CCC(OCC)N1C(=O)c1cc2c(cc1[N+](=O)[O-])OCO2` (centres undefined), the T/C runs as follows: under setting [14], 97 % of control; under setting [15], 101 % of control; under setting [16], 97 % of control.
Regarding `O=c1ccc2nc3ccccc3sc-2c1`, the T/C was 106 % of control under setting [13]; 103 % of control under setting [14]; 97 % of control under setting [1]; 108 % of control under setting [15]; 98 % of control under setting [16].
As for `CCOC(=O)Nc1cc2c(c(N)n1)N=C(c1ccc(-c3ccccc3)cc1)CN2`, the T/C reads like this: (endpoint: mean survival time, dose: 0.78 mg/kg/injection, schedule: Q01DX009 (ip), vehicle: Klucel (hydroxypropylcellulose) (HPC)) 106 % of control; (endpoint: mean survival time, dose: 1.56 mg/kg/injection, schedule: Q01DX009 (ip), vehicle: Klucel (hydroxypropylcellulose) (HPC)) 112 % of control; (endpoint: mean survival time, dose: 3.12 mg/kg/injection, schedule: Q01DX009 (ip), vehicle: Klucel (hydroxypropylcellulose) (HPC)) 114 % of control and 111 % of control; (endpoint: mean survival time, dose: 6.25 mg/kg/injection, schedule: Q01DX009 (ip), vehicle: Klucel (hydroxypropylcellulose) (HPC)) 109 % of control; (endpoint: mean survival time, dose: 12.5 mg/kg/injection, schedule: Q01DX001 (ip), vehicle: Klucel (hydroxypropylcellulose) (HPC)) 115 % of control; (endpoint: mean survival time, dose: 12.5 mg/kg/injection, schedule: Q01DX009 (ip), vehicle: Klucel (hydroxypropylcellulose) (HPC)) 89 % of control. Moreover, the T/C (endpoint: mean survival time, dose: 50.0 mg/kg/injection, schedule: Q01DX001 (ip), vehicle: Klucel (hydroxypropylcellulose) (HPC)) is 121 % of control.
Consider `CC1(C)CC(=O)C=C(OCCc2ccccc2)C1`, for which the T/C by setting is: under setting [2], 102 % of control; under setting [4], 102 % of control; under setting [11], 102 % of control.
For `CCNC(=O)C(=O)NCC`, the T/C is 103 % of control (endpoint: mean survival time, dose: 100.0 mg/kg/injection, schedule: Q04DX002 (ip), vehicle: saline with Tween-80); 100 % of control (endpoint: mean survival time, dose: 200.0 mg/kg/injection, schedule: Q04DX002 (ip), vehicle: saline with Tween-80); 103 % of control (endpoint: mean survival time, dose: 400.0 mg/kg/injection, schedule: Q04DX002 (ip), vehicle: saline with Tween-80).
Turning to `CC(N)C(=O)O` (centres undefined), the T/C is 106 % of control (endpoint: mean survival time, dose: 100.0 mg/kg/injection, schedule: Q01DX001 (ip), vehicle: saline); 112 % of control (endpoint: mean survival time, dose: 200.0 mg/kg/injection, schedule: Q01DX001 (ip), vehicle: saline); 98 % of control (endpoint: mean survival time, dose: 400.0 mg/kg/injection, schedule: Q01DX001 (ip), vehicle: saline).
